Reference: paper PMC10970734, “Identification of an Intravenous Injectable NK1 Receptor Antagonist for Use in Traumatic Brain Injury” (International Journal of Molecular Sciences, 2024)
pIC50, pKi: −log10 of the molar value.

Legend:
[1] = molecular target: T1, recombinant human NK3 receptor (Homo sapiens, UniProt P29371); assay: Radioligand binding, recombinant human NK3 receptor
T1 sequence (P29371 1-465): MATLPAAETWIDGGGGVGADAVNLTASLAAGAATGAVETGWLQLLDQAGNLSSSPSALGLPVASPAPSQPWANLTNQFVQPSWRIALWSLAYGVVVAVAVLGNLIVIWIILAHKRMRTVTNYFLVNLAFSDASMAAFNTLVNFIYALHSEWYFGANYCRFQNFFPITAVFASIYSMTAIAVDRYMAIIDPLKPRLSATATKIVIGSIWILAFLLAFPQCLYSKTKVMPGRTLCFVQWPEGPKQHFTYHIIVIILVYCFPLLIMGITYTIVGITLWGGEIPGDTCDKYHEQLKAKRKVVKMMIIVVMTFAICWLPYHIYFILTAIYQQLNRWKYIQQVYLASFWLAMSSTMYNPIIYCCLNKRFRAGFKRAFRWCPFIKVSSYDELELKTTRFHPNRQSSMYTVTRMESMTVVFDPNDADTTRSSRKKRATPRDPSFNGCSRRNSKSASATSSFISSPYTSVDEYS

Adenosine A2A = Adenosine A2A (Homo sapiens, UniProt P29274); assay: Cerep selectivity profiling, receptor antagonism; assay type: biochemical
Chain of Adenosine A2A (P29274 whole entry): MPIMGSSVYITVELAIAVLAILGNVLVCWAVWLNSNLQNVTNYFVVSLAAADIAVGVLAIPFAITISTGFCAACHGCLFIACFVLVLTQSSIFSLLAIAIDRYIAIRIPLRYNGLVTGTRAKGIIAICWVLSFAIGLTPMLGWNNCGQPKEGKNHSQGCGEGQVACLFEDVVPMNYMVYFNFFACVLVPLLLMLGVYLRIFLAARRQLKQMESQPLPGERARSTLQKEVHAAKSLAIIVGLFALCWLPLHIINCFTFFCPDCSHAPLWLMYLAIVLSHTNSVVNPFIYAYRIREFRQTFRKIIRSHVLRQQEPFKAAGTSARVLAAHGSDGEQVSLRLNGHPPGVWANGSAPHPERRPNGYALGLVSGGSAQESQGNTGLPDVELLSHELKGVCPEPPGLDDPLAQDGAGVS
Protocol: (§1) The pharmacological specificity of EUC-001 was assessed using the commercially available selectivity profiling services provided by Cerep (Celle l’Evescault, France). Initially, the activity of EUC-001, at a fixed concentration of 10 μM, was evaluated in a range of assays to assess pharmacological selectivity relative to other cell-surface receptors, ion channels and transport proteins. Where any significant binding was detected, further assays were performed to quantify potential non-selective activity. […] In terms of this non-specific activity, the IC50s are approximately 3.6 log units greater than that required for NK1R antagonism.
(§2) The pharmacological specificity of EUC-001 was assessed using the commercially available selectivity profiling services provided by Cerep (Celle l’Evescault, France). For initial screens, the binding of EUC-001 (synthesized by Hoffmann-La Roche, Basel, Switzerland) at a fixed concentration of 10 μM was evaluated in a range of assays to assess pharmacological selectivity relative to other cell-surface receptors, ion channels and transport proteins.
(§3) For agonist activity, results are expressed as a percentage of the control agonist response induced by the selective NK1R agonist [Sar^9, Met(O2)^11]-substance P (100 nM) for a range of concentrations of EUC-001. Antagonist activity is expressed as a percentage change in the response induced by 3 nM [Sar^9, Met(O2)^11]-SP (R&D systems) across a range of concentrations of EUC-001. The EC50 values (concentration producing a half-maximal specific response) and IC50 values (concentration causing a half-maximal inhibition of the control specific agonist response) were determined by non-linear regression analysis of the concentration–response curves generated with mean replicate values using Hill equation curve fitting (Y = D + [(A − D)/(1 + (C/C50)nH)], where Y = specific response, D = minimum specific response, A = maximum specific response, C = compound concentration, and C50 = EC50 or IC50, and nH = slope factor). This analysis was performed using custom software developed at Cerep and validated by comparison with data generated by the commercial software SigmaPlot® 4.0 for Windows® (SPSS Inc., Chicago, IL, USA). For the antagonists, the apparent dissociation constants (KB) were calculated using the modified Cheng Prusoff equation (KB = IC50/(1 + (A/EC50A)), where A = concentration of reference agonist in the assay, and EC50A = EC50 value of the reference agonist).

Dopamine D1 = Dopamine D1 (Homo sapiens, UniProt P21728); assay: Cerep selectivity profiling, receptor antagonism; assay type: biochemical
Chain of Dopamine D1 (P21728 whole entry): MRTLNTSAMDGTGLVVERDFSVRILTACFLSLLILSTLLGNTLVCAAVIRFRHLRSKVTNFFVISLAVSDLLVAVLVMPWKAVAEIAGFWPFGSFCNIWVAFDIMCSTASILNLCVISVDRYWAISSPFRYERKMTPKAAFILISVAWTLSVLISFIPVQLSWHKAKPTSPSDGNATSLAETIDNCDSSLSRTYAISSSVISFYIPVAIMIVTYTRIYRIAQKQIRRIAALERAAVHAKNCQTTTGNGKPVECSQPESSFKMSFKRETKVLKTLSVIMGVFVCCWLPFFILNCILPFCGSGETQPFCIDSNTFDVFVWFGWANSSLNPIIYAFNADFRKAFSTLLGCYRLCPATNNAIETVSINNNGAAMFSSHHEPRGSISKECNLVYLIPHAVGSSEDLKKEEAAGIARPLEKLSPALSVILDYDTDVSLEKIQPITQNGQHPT
Protocol: as §1, §2, §3

Dopamine D2S = Dopamine D2S (Homo sapiens, UniProt P14416); assay: Cerep selectivity profiling, receptor antagonism; assay type: biochemical
Chain of Dopamine D2S (P14416 1-414 isoform P14416-2): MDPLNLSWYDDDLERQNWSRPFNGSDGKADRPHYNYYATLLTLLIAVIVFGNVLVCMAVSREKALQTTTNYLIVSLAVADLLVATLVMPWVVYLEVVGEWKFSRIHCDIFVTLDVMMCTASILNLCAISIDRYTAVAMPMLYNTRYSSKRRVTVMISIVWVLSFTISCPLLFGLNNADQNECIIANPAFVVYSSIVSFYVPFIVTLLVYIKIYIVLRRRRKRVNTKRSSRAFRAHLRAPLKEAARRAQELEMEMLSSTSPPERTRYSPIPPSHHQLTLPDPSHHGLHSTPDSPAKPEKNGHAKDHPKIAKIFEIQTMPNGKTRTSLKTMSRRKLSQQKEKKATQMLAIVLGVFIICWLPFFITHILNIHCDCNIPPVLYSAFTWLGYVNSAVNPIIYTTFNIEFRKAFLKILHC
Protocol: as §1, §2, §3

Melanocortin MC4 = Melanocortin MC4 (Homo sapiens, UniProt P32245); assay: Cerep selectivity profiling, receptor antagonism; assay type: biochemical
Chain of Melanocortin MC4 (P32245 whole entry): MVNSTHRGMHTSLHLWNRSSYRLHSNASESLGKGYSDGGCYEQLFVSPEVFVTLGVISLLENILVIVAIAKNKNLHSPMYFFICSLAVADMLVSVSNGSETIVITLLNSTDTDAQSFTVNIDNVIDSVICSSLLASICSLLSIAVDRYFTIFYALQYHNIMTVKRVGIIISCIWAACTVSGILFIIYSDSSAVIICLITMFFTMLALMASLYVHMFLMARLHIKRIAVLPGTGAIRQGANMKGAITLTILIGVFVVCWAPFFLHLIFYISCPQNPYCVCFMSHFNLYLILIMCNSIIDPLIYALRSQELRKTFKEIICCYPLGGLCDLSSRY
Protocol: as §1, §2, §3

[2] = molecular target: T2, Muscarinic cholinergic M1 (Homo sapiens, UniProt P11229); assay: Cerep selectivity profiling, receptor antagonism; assay type: biochemical
T2 sequence (P11229 1-460): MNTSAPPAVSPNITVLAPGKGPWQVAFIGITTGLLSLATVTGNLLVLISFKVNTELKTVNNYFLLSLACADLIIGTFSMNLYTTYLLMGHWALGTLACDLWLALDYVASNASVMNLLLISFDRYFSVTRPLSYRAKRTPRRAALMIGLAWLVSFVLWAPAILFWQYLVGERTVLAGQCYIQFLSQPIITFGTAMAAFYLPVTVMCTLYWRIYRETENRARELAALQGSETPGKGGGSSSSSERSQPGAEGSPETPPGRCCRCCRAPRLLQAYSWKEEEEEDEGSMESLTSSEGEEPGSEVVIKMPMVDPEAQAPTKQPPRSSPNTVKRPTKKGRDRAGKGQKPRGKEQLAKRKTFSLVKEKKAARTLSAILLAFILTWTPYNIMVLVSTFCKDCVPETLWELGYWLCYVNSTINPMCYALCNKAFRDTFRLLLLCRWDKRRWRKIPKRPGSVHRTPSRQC
Protocol: as §1, §2, §3

[3] = molecular target: T3, Muscarinic cholinergic M2 (Homo sapiens, UniProt P08172); assay: Cerep selectivity profiling, receptor antagonism; assay type: biochemical
T3 sequence (P08172 1-466): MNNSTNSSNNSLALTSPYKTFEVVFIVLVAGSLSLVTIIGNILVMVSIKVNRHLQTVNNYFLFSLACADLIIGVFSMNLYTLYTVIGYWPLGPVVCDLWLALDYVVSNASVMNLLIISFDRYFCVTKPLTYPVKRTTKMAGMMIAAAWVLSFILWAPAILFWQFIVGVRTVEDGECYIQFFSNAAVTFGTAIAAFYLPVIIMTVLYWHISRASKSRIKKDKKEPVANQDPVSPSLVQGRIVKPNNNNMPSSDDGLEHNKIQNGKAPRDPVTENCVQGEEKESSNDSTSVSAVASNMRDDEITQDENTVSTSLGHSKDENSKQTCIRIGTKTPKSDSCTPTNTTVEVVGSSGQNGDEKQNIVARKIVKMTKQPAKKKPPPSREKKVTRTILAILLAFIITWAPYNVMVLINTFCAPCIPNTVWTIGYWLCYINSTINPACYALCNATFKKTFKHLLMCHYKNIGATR
Protocol: as §1, §2, §3

[4] = molecular target: Muscarinic cholinergic M3 (Homo sapiens, UniProt P20309); assay: Cerep selectivity profiling, receptor antagonism; assay type: biochemical
Chain of Muscarinic cholinergic M3 (P20309 whole entry): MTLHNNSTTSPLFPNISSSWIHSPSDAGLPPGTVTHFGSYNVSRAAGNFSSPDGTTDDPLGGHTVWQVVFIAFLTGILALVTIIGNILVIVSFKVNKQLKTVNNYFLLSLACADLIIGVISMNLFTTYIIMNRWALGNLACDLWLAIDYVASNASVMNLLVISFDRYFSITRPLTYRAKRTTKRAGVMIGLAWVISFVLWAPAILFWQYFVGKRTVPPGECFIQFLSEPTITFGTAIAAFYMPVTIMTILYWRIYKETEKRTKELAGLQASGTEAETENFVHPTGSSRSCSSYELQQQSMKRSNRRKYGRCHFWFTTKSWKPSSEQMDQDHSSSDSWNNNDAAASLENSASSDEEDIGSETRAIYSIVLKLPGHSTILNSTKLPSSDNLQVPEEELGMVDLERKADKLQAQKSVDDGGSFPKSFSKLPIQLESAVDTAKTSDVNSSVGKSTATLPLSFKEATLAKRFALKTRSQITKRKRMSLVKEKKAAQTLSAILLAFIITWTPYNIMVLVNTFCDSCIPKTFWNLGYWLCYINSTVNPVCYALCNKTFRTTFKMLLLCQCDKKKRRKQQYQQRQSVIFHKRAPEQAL
Protocol: as §1, §2, §3

Serotonin 5-HT2A = Serotonin 5-HT2A (Homo sapiens, UniProt P28223); assay: Cerep selectivity profiling, receptor antagonism; assay type: biochemical; conditions: Serotonin 5-HT2A antagonism
Chain of Serotonin 5-HT2A (P28223 whole entry): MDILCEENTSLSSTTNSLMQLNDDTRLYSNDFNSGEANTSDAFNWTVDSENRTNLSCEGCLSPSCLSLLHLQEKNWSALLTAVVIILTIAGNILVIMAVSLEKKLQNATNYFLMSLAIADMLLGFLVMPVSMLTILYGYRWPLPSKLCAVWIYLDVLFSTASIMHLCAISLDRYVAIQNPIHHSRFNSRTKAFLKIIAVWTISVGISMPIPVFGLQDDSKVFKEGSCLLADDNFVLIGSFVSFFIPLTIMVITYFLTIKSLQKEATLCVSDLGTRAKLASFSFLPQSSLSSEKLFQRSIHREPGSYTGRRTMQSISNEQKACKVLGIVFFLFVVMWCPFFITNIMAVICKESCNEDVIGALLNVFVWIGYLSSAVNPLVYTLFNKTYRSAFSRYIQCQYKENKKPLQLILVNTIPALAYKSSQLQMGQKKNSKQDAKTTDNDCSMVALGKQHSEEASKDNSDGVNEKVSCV
Protocol: as §1, §2, §3

Serotonin 5-HT5A = Serotonin 5-HT5A (Homo sapiens, UniProt P47898); assay: Cerep selectivity profiling, receptor antagonism; assay type: biochemical; conditions: Serotonin 5-HT5A antagonism
Chain of Serotonin 5-HT5A (P47898 whole entry): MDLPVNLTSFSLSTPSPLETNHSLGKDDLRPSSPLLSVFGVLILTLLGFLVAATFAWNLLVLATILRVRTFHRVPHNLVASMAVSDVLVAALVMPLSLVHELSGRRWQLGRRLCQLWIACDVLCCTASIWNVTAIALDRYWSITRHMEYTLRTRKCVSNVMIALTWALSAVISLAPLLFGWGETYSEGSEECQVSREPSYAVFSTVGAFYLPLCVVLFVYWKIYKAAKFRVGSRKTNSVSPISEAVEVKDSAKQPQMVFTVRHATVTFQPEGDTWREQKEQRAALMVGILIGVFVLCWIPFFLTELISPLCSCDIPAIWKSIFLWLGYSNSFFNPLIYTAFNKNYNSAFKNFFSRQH
Protocol: as §1, §2, §3

Structure (SMILES): Cc1ccccc1-c1cc(N2CCN(C)CC2)ncc1C(=O)N(C)Cc1cc(C(F)(F)F)cc(C(F)(F)F)c1 [EUC-001, N-(3,5-Bis-trifluoromethyl-benzyl)-N-methyl-6-(4-methyl-piperazine-1-yl)-4-o-tolyl-nicotinamide]
- pKi [1]: 4.77
- pIC50 (Adenosine A2A): 4.52
- pIC50 (Dopamine D1): 4.80
- IC50 (M) (Dopamine D2S): Not calculable
- pIC50 (Melanocortin MC4): 4.89
- pIC50 [2]: 5.48
- pIC50 [3]: 4.52
- pIC50 [4]: 5.48
- pIC50 (Serotonin 5-HT2A): 4.82
- pIC50 (Serotonin 5-HT5A): 5.40
